Literature values as cited in US20210393726A1, “USE OF EXTRACT OF VEGETATION WATERS IN THE REGENERATION OF EPITHELIAL TISSUE” (FATTORIA LA VIALLAD DI GIANNI, ANTONIO E BANDINO LO FRANCO …, priority 2017, published 2021).

Details: high concentrations, up to 250-500 mg/kg/day

In the case of `OCCc1ccc(O)c(O)c1` [Hydroxytyrosol, hydroxytyrosol], the “toxic effect on in vivo administration” value is listed as “does not have any toxic effect”.
